Test results taken from patent publication US8334308B2, “Renin inhibitors” (Merck Sharp & Dohme Corp., priority 2007, dated 2012).

Columns and labels:
renin in human plasma = target: T1, renin in human plasma (Homo sapiens, UniProt P00797); assay: Inhibition of renin in human plasma (enzymatic in vitro assay, Ang I EIA); assay type: biochemical; conditions: human plasma from 10 normal donors, 37° C. 2 h
T1 construct: host or cells: recombinant renin of unstated origin added to human plasma from 10 normal donors
T1 sequence (P00797 67-406): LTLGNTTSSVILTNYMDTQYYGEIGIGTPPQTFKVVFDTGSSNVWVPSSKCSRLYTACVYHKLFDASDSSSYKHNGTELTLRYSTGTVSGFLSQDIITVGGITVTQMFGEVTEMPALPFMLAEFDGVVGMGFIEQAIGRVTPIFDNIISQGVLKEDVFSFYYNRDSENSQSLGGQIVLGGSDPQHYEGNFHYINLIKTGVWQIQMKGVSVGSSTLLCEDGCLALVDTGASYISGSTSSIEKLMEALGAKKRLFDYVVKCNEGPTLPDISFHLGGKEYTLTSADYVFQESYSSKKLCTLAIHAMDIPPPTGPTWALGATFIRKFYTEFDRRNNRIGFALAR
Procedure: Inhibition of Renin in Human Plasma
The enzymatic in vitro assay was performed in 384-well polypropylene plates (Nunc). The assay buffer consisted of PBS (Gibco BRL) including 1 mM EDTA and 0.1% BSA. The reaction mixture was composed of 80 μL, per well of human plasma, enzyme, Ang I-antibodiesmix and 5 μL of renin inhibitors in DMSO. The human plasma mix was premixed at 4° C. and consists of […]
human plasma from 10 normal donors human recombinant renin (3 μM)
The mixtures were then incubated at 37° C. for 2 h.
To determine the enzymatic activity and its inhibition, the accumulated Ang I was detected by an enzyme immunoassay (EIA) in 384-well plates (Nunc). 10 μL of the reaction mixture or standards were transferred to immuno plates which were previously coated with a covalent complex of Ang I and bovine serum albumin (Ang I-BSA). 70 μL assay buffer were added and the plates were incubated at 4° C. overnight.

human recombinant renin = target: T2, human recombinant renin (Homo sapiens, UniProt P00797); assay: Inhibition of human recombinant renin (enzymatic in vitro assay, Ang I EIA); assay type: biochemical; conditions: human recombinant renin 40 pM, buffer, 37° C. 3 h
T2 sequence (P00797 67-406): T1 sequence (P00797 67-406)
Procedure: Inhibition of Human Recombinant Renin
The enzymatic in vitro assay was performed in 384-well polypropylene plates (Nunc). The assay buffer consisted of PBS (Gibco BRL) including 1 mM EDTA and 0.1% BSA. The reaction mixture were composed of 47.5 μL per well of an enzyme mix and 2.5 μL of renin inhibitors in DMSO. The enzyme mix was premixed at 4° C. and consists of the following components: […]
human recombinant renin (40 pM) synthetic human angiotensin(1-14) (0.5 μM) hydroxyquinoline sulfate (1 mM)
The mixtures were then incubated at 37° C. for 3 h. The enzyme reaction was stopped by placing the reaction plate on wet ice.
To determine the enzymatic activity and its inhibition, the accumulated Ang I was detected by an enzyme immunoassay (EIA) in 384-well plates (Nunc). 5 μL of the reaction mixture or standards were transferred to immuno plates which were previously coated with a covalent complex of Ang I and bovine serum albumin (Ang I-BSA). 75 μL of Ang I-antibodies in assay buffer above including 0.01% Tween 20 were added and the plates were incubated at 4° C. overnight.
An alternative protocol could be used by stopping the enzymatic reaction with 0.02N final concentration of HCl. 5 μL of the reaction mixture or standards were transferred to immuno plates and 75 μL of Ang I-antibodies in assay buffer above including 0.01% Tween 20 were added and the plates were incubate at RT for 4 h.

SMILES	IC50 (renin in human plasma) [nM]	IC50 (human recombinant renin) [nM]
COCCCc1ccccc1-c1ccc(C(CN)Cc2ccc(OCCOc3c(Cl)cc(C)cc3Cl)cc2)c(C)c1 (stereo not drawn) [Example 3, 3-{4-[2-(2,6-dichloro-4-methylphenoxy)ethoxy]phenyl}-2-[2′-(3-methoxypropyl)-3-methylbiphenyl-4-yl]propan-1-amine]	116	0.4
COCCOc1ccccc1-c1ccc(C(CN)Cc2ccc(OCCOc3c(Cl)cc(C)cc3Cl)cc2)c(C)c1 (stereo not drawn) [Example 4, 3-{4-[2-(2,6-dichloro-4-methylphenoxy)ethoxy]phenyl}-2-[2′-(2-methoxyethoxy)-3-methylbiphenyl-4-yl]propan-1-amine]	1500	7.4
Cc1cc(Cl)c(OCCOc2ccc(CC(CN)c3ccc(-c4ccccc4Cl)cc3)cc2)c(Cl)c1 (stereo not drawn) [Example 6, 2-(2′-chlorobiphenyl-4-yl)-3-{4-[2-(2,6-dichloro-4-methylphenoxy)ethoxy]phenyl}propan-1-amine]	–	44.4
COc1cc(-c2ccccc2Cl)ccc1C(CN)Cc1ccc(OCCOc2c(Cl)cc(C)cc2Cl)cc1 (stereo not drawn) [Example 8, 2-(2′-chloro-3-methoxybiphenyl-4-yl)-3-{4-[2-(2,6-dichloro-4-methylphenoxy)ethoxy]phenyl}propan-1-amine]	3620	47.6
Cc1cc(Cl)c(OCCOc2ccc(CC(CN)c3ccc(-c4ccccc4Cl)cc3Cl)cc2)c(Cl)c1 (stereo not drawn) [Example 10, 2-(2′,3-dichlorobiphenyl-4-yl)-3-{4-[2-(2,6-dichloro-4-methylphenoxy)ethoxy]phenyl}propan-1-amine]	764	0.5
COCCCc1ccccc1-c1cc(C(F)(F)F)c(C(CN)Cc2ccc(OCCOc3c(Cl)cc(C)cc3Cl)cc2)cn1 (stereo not drawn) [Example 11, 3-{4-[2-(2,6-dichloro-4-methylphenoxy)ethoxy]phenyl}-2-[6-[2-(3-methoxypropyl)phenyl]-4-(trifluoromethyl)pyridin-3-yl]propan-1-amine]	21	0.3
COCCCc1ccccc1-c1ccc(C(CN)Cc2ccc(OCCOc3c(Cl)cc(C)cc3Cl)cc2)c(C(F)(F)F)c1 (stereo not drawn) [Example 13, 3-{4-[2-(2,6-dichloro-4-methylphenoxy)ethoxy]phenyl}-2-[2′-(3-methoxypropyl)-3-(trifluoromethyl)biphenyl-4-yl]propan-1-amine]	156	0.9
COCCCc1c(-c2ccc(C(CN)Cc3ccc(OCCOc4c(Cl)cc(C)cc4Cl)cc3)c(C)c2)ccc[n+]1[O-] (stereo not drawn) [Example 21, 3-{-4-[2-(2,6-dichloro-4-methylphenoxy)ethoxy]phenyl}-2-{4-[2-(3-methoxypropyl)-1-oxidopyridin-3-yl]-2-methylphenyl}propan-1-amine]	103	4.3
Cc1cc(Cl)c(OCCOc2ccc(CC(CN)c3ccc(-c4ccccc4CCC(=O)N(C)C)cc3C)cc2)c(Cl)c1 (stereo not drawn) [Example 24, 3-[4′-(2-amino-1-{4-[2-(2,6-dichloro-4-methylphenoxy)ethoxy]benzyl}ethyl)-3′-methylbiphenyl-2-yl]-N—N-dimethylpropanamide]	> 1110	30.8
CC(=O)NCCc1ccccc1-c1ccc(C(CN)Cc2ccc(OCCOc3c(Cl)cc(C)cc3Cl)cc2)c(C)c1 (stereo not drawn) [Example 30, 2-{2′-[2-(acetylamino)ethyl]-3-methylbiphenyl-4-yl}-3-{4-[2-(2,6-dichloro-4-methylphenoxy)ethoxy]phenyl}propan-1-aminium chloride]	9.6	–
Cc1cc(Cl)c(OCCOc2ccc(CC(CN)c3ccc(-c4c(Cl)cccc4Cl)cc3C)cc2)c(Cl)c1 (stereo not drawn) [Example 39]	2320	16.3

Second part, the compound after the results:

IC50 (renin in human plasma) [nM]	IC50 (human recombinant renin) [nM]	SMILES
796	6	Cc1cc(Cl)c(OCCOc2ccc(CC(CN)c3ccc(-c4ccccc4Cl)cc3C)cc2)c(Cl)c1 (stereo not drawn) [Example 1, 2-(2′-Chloro-3-methyl-biphenyl-4-yl)-3-{4-[2-(2,6-dichloro-4-methyl-phenoxy)-ethoxy]-phenyl}-propylamine]
1920	19.7	COCCc1ccccc1-c1ccc(C(CN)Cc2ccc(OCCOc3c(Cl)cc(C)cc3Cl)cc2)c(C)c1 (stereo not drawn) [Example 2, 3-{4-[2-(2,6-dichloro-4-methylphenoxy)ethoxy]phenyl}-2-[2′-(2-methoxyethyl)-3-methylbiphenyl-4-yl]propan-1-amine]
1160	1.7	COCCCOc1ccccc1-c1ccc(C(CN)Cc2ccc(OCCOc3c(Cl)cc(C)cc3Cl)cc2)c(C)c1 (stereo not drawn) [Example 5, 3-{4-[2-(2,6-dichloro-4-methylphenoxy)ethoxy]phenyl}-2-[2′-(3-methoxypropoxy)-3-methylbiphenyl-4-yl]propan-1-amine]
1150	7	Cc1cc(Cl)c(OCCOc2ccc(CC(CN)c3ccc(-c4ccccc4Cl)cc3F)cc2)c(Cl)c1 (stereo not drawn) [Example 7, 2-(2′-chloro-3-fluorobiphenyl-4-yl)-3-{4-[2-(2,6-dichloro-4-methylphenoxy)ethoxy]phenyl}propan-1-amine]
643	0.2	COCCCc1cccc(C)c1-c1ccc(C(CN)Cc2ccc(OCCOc3c(Cl)cc(C)cc3Cl)cc2)c(C)c1 (stereo not drawn) [Example 12, 3-{4-[2-(2,6-dichloro-4-methylphenoxy)ethoxy]phenyl}-2-[2′-(3-methoxypropyl)-3,6′-dimethylbiphenyl-4-yl]propan-1-amine]
544	10.6	Cc1cc(Cl)c(OCCOc2ccc(CC(CN)c3ccc(-c4ccccc4CCC#N)cc3C)cc2)c(Cl)c1 (stereo not drawn) [Example 14, 3-[4′-(2-amino-1-{4-[2-(2,6-dichloro-4-methylphenoxy)ethoxy]benzyl}ethyl)-3′-methylbiphenyl-2-yl]propanenitrile]
94.6	1.1	COCCCc1ncccc1-c1ccc(C(CN)Cc2ccc(OCCOc3c(Cl)cc(C)cc3Cl)cc2)c(C)c1 (stereo not drawn) [Example 16, 3-{4-[2-(2,6-dichloro-4-methylphenoxy)ethoxy]phenyl}-2-{4-[2-(3-methoxypropyl)pyridin-3-yl]-2-methylphenyl}propan-1-amine]
> 10000	285	COCCCc1ccccc1-c1ccc(C(CN)Cc2cc(F)cc(F)c2)c(C)c1 (stereo not drawn) [Example 32, 3-(3,5-difluorophenyl)-2-[2′-(3-methoxypropyl)-3-methylbiphenyl-4-yl]propan-1-amine]
